We go through 13 compounds from US20260109707A1, “HETEROBIFUNCTIONAL COMPOUNDS AND METHODS OF TREATING DISEASE” (Halda Therapeutics OpCo. Inc., priority 2022, published 2026).

The test system of assay [1] is T-Rex 293 cell line SC3 cells having increased expression of androgen receptor protein due to exposure to doxycycline. Briefly: Cellular growth inhibition assay, T-Rex 293 SC3 cells with doxycycline (CellTiter-Glo, 72 hours). The assay is classed as cell-based. Particulars: 72 h, T-Rex 293 SC3 cells with increased androgen receptor expression due to doxycycline (10 ng/mL). The gist of the method: (§1)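 Doxycycline (10 ng/mL) was either included or omitted to toggle wild-type androgen receptor expression in SC3 cells, a T-Rex 293 clone, grown in stripped-serum, phenol red-free medium. After 72 hours with compound, viable cells were quantified by CellTiter-Glo 2.0.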
(In general: In ATP-based viability assays light output follows the ATP content of the culture.)

Assay [2] deals with T-Rex 293 cell line SC3 cells lacking increased expression of androgen receptor protein. Briefly: Cellular growth inhibition assay, T-Rex 293 SC3 cells without doxycycline (CellTiter-Glo, 72 hours). The assay is classed as cell-based. Particulars: 72 h, T-Rex 293 cell line SC3 cells not exposed to doxycycline (lacking increased androgen receptor expression). The gist of the method: as §1

A further assay relates to VCaP cells. Briefly: Cellular growth inhibition assay for VCaP cells (CellTiter-Glo, 72 hours). In kind it is cell-based, human. Particulars: Homo sapiens, VCaP, 72 h. The gist of the method:
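Luminescent viability signal after 72 h of compound exposure gave GI50 values by four-parameter nonlinear regression. Compounds were added in 0.5% DMSO to cells plated 24 h earlier at 5000/well in DMEM containing 10% FBS.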

The test system of a further assay is T47D cells. Briefly: Cellular growth inhibition assay for T47D cells (CellTiter-Glo, 72 hours). The assay is classed as cell-based, human. Particulars: Homo sapiens, T47D, 72 h, 72 hours treatment. In a few lines:
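Luminescence from CellTiter-Glo 2.0 after 72 h of compound exposure gives the viability signal. Cells grew in insulin-supplemented (0.2 units/mL) DMEM with 10% FBS and were treated one day after seeding at 0.5% DMSO. GI50 values come from four-parameter nonlinear regression.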

Turning to `Cc1sc2c(c1C)C(c1ccc([C@H]3C[C@@H]([C@@H]4CCCN(c5ccc(C(=O)N[C@H]6CC[C@H](Oc7ccc(C#N)c(Cl)c7)CC6)nn5)C4)C3)cc1)=N[C@@H](Cc1ncco1)c1nnc(C)n1-2` [I-374], the concentration for 50% growth inhibition (GI50) (in assay [1]; in assay [2]; with VCaP cells; in the assay with T47D cells) was more than 3000 nM throughout.

As to `Cc1sc2c(c1C)C(c1ccc([C@H]3C[C@H]([C@H]4CCCN(c5ccc(C(=O)N[C@H]6CC[C@H](Oc7ccc(C#N)c(Cl)c7)CC6)nn5)C4)C3)cc1)=N[C@@H](Cc1ncco1)c1nnc(C)n1-2` [I-375], the GI50 (usually the concentration at which growth is held to half of that of the control) in assay [1] is less than 500 nM; in assay [2], more than 3000 nM; in the assay on VCaP cells it was less than 500 nM; in the assay on T47D cells, more than 3000 nM.

`Cc1sc2c(c1C)C(c1ccc([C@H]3C[C@@H]([C@H]4CCCN(c5ccc(C(=O)N[C@H]6CC[C@H](Oc7ccc(C#N)c(Cl)c7)CC6)nn5)C4)C3)cc1)=N[C@@H](Cc1ncco1)c1nnc(C)n1-2` [I-376]: the concentration for 50% growth inhibition (GI50) (in assay [1]; in assay [2]; in the assay with VCaP cells; with T47D cells) was less than 500 nM each time.

Regarding `Cc1sc2c(c1C)C(c1ccc([C@H]3C[C@H]([C@@H]4CCCN(c5ccc(C(=O)N[C@H]6CC[C@H](Oc7ccc(C#N)c(Cl)c7)CC6)nn5)C4)C3)cc1)=N[C@@H](Cc1ncco1)c1nnc(C)n1-2` [I-377], the GI50 (in assay [1]; in assay [2]; in the assay with VCaP cells; in the assay on T47D cells) was less than 500 nM throughout.

Take `Cc1sc2c(c1C)C(c1ccc(C3CC([C@@H]4CCCN(c5ccc(C(=O)N[C@H]6CC[C@H](Oc7ccc(C#N)c(Cl)c7)CC6)nn5)C4)C3)cc1)=N[C@@H](Cc1ncco1)c1nnc(C)n1-2` (stereo partly shown) [I-378]: the GI50 in assay [1] is less than 500 nM; in assay [2], more than 3000 nM; in the assay on VCaP cells, less than 500 nM; in the assay on T47D cells, 500 to 1500 nM.

Turning to `Cc1sc2c(c1C)C(c1ccc(CCN3[C@@H](C)CN(c4ccc(C(=O)N[C@H]5CC[C@H](Oc6ccc(C#N)c(Cl)c6)CC5)nn4)C[C@@H]3C)cc1)=N[C@@H](Cc1ncco1)c1nnc(C)n1-2` [I-379], the GI50 (in assay [1]; in assay [2]; with VCaP cells; with T47D cells) was less than 500 nM in each case.

On to `Cc1sc2c(c1C)C(c1ccc([C@H]3C[C@@H](C4CC5(CCN(c6ccc(C(=O)N[C@H]7CC[C@H](Oc8ccc(C#N)c(Cl)c8)CC7)nn6)CC5)C4)C3)cc1)=N[C@@H](Cc1ncco1)c1nnc(C)n1-2` [I-380], for which the GI50 (in assay [1]; in assay [2]; in the assay on VCaP cells; in the assay with T47D cells) was more than 3000 nM each time.

For `Cc1sc2c(c1C)C(c1ccc([C@H]3C[C@H](C4CC5(CCN(c6ccc(C(=O)N[C@H]7CC[C@H](Oc8ccc(C#N)c(Cl)c8)CC7)nn6)CC5)C4)C3)cc1)=N[C@@H](Cc1ncco1)c1nnc(C)n1-2` [I-381], the GI50 (in assay [1]; in assay [2]; in the assay with VCaP cells; with T47D cells) was more than 3000 nM each time.

Take `Cc1sc2c(c1C)C(c1ccc([C@H]3C[C@@H](C4CC5(CCN(c6ccc(C(=O)N[C@H]7CC[C@H](Oc8ccc(C#N)c(Cl)c8)CC7)nn6)CC5)C4)C3)cc1)=N[C@H](Cc1ncco1)c1nnc(C)n1-2` [I-382]: the GI50 is less than 500 nM in assay [1], more than 3000 nM in assay [2], 500 to 1500 nM with VCaP cells and less than 500 nM in the assay with T47D cells.

`Cc1sc2c(c1C)C(c1ccc([C@H]3C[C@H](C4CC5(CCN(c6ccc(C(=O)N[C@H]7CC[C@H](Oc8ccc(C#N)c(Cl)c8)CC7)nn6)CC5)C4)C3)cc1)=N[C@H](Cc1ncco1)c1nnc(C)n1-2` [I-383]: the GI50 in assay [1] is less than 500 nM; in assay [2] it was more than 3000 nM; in the assay with VCaP cells it was less than 500 nM; in the assay on T47D cells it was less than 500 nM.

As for `Cc1sc2c(c1C)C(c1ccc(C[C@H]3C[C@]4(CCCN(c5ccc(C(=O)N[C@H]6CC[C@H](Oc7ccc(C#N)c(Cl)c7)CC6)nn5)C4)C3)nc1)=N[C@H](Cc1ncco1)c1nnc(C)n1-2` [I-384], the GI50 (in assay [1]; in assay [2]; in the assay on VCaP cells; in the assay on T47D cells) was more than 3000 nM throughout.

Consider `Cc1sc2c(c1C)C(c1ccc(C[C@H]3C[C@]4(CCCN(c5ccc(C(=O)N[C@H]6CC[C@H](Oc7ccc(C#N)c(Cl)c7)CC6)nn5)C4)C3)nc1)=N[C@@H](Cc1ncco1)c1nnc(C)n1-2` [I-385], for which the GI50 in assay [1] was less than 500 nM; in assay [2], more than 3000 nM; in the assay on VCaP cells, less than 500 nM; in the assay on T47D cells, 500 to 1500 nM.

Consider `Cc1sc2c(c1C)C(c1ccc(N3CC(C4CCN(c5ccc(C(=O)N[C@H]6CC[C@H](Oc7ccc(C#N)c(Cl)c7)CC6)nn5)CC4)C3)cc1)=N[C@@H](Cc1ncco1)c1nnc(C)n1-2` [I-386], for which the concentration for 50% growth inhibition (GI50) (in assay [1]; in assay [2]; with VCaP cells; in the assay on T47D cells) was less than 500 nM throughout.
